Tests used:
[1] = tested on: verotoxin producing E. coli (VTEC) cells; type: cell-based
[2] = tested on: Listeria innocua strains HPB 34 and 118; test: Metabolic labeling of Listeria innocua with HPG, Alexa488-azide, fluorescence microscopy; type: cell-based; details: HPG 100 μg/ml, HTM minimal medium, 16 h at 30° C.
Experimental: In addition to gram negative E. coli strains, gram positive Listeria strains were investigated to probe the diversity of bacteria susceptible to this labeling strategy. Two strains of Listeria innocua were cultured in HTM minimal medium containing the methionine biosynthesis inhibition amino acids, in the presence of methionine (100 μg/ml) or HPG (100 μg/ml) for 16 h at 30° C., then reacted with Alexa488-azide as described earlier.

L. innocua = test: Capture of HPG-labeled, biotin-azide reacted L. innocua on streptavidin-coated magnetic beads; type: cell-based, Listeria innocua; details: biotin-azide 100 μM, M280 Dynabeads 1 hour
From the text: (§1) FIG. 6: Capture via unnatural amino acid metabolic labeling of live gram negative (E. coli) and gram positive (L. innocua) bacteria.
(§2) E. coli and L. innocua cells metabolically labeled by HPG were further investigated to determine if they could be captured on a surface via the incorporated amino acid analogue.

BL21 E. coli [3] = test: Capture of HPG-labeled, biotin-azide reacted E. coli on streptavidin-coated magnetic beads; type: cell-based; details: biotin-azide 100 μM, M280 Dynabeads 1 hour
From the text: as §1, §2

K12 E. coli = test: Immunocapture with anti-E. coli antibody beads and HPG metabolic labeling of K12 E. coli; type: cell-based; details: 30 minutes in M9 media, anti-E. coli antibody beads, Alexa488-azide
Experimental: FIG. 11: Metabolic label incorporation, immunocapture and fluorescence identification of live K12 strain E. coli. […] M280 streptavidin-coated magnetic beads treated with PBS (“Untreated”) or PBS containing biotin-tagged Anti-E. coli antibody were then added to the culture for 1 hour before the beads were washed in PBS and reacted with Alexa488-azide to fluorescently label surface proteins. Fluorescence levels are adjusted above background detected for cells grown in the presence of methionine.
Metabolic labeling is compatible with strain-specific immunocapture using magnetic beads coated with antibodies directed to specific bacteria. This method has the potential to concentrate specific strains of bacteria from food or water samples, while simultaneously allowing bacteria to acquire the functionalized biomolecular precursor and incorporate it in target biomolecules. Captured bacteria are then identified as living or dead by a subsequent bioorthogonal reaction and detection by fluorescence microscopy. […] M280 magnetic beads treated with PBS or biotin-tagged anti-E. coli antibody were co-incubated with the E. coli. Bacteria/bead aggregates were washed in PBS, then reacted with Alexa488-azide to fluorescently identify living bacteria captured on the M280 magnetic beads.

BL21 E. coli [4] = test: Dual metabolic labeling (HPG and KDO-azide) of BL21 E. coli, fluorescence and bead capture; type: cell-based; details: HPG and KDO-azide together
Experimental: FIG. 10: Dual metabolic label incorporation, fluorescence labeling and capture of live lab strain E. coli. […] The cells were first reacted with biotin-azide to biotinylate surface proteins, then reacted with Alexa488-alkyne to fluorescently label LPS molecules. Surface biotinylation was either fluorescently detected after incubation with Cy3-streptavidin (top panels), or bacteria were captured after incubation with streptavidin-coated magnetic beads (bottom panels). Fluorescence levels are adjusted above background detected for cells grown in the presence of KDO and methionine.
Beyond identification of living cells, this method has the potential to discriminate between gram positive and gram negative bacteria as functionalized KDO will only be incorporated into LPS of gram negative cells, whereas HPG should not discriminate between the two. This method may also be used to capture living bacteria via incorporation of HPG, and fluorescent identification of gram negative strains via incorporation of KDO-azide. […] Methionine biosynthesis was then inhibited and either methionine or HPG were added to the cultures and incubated for 16 hours. Cells were reacted with biotin-azide to label surface proteins containing HPG, then reacted with Alexa488-alkyne to fluorescently label LPS containing KDO-azide. […]

[5] = tested on: VTEC strain of serotype O45:H2; test: Metabolic labeling of VTEC O45:H2 with KDO-alkyne, Alexa488-azide, fluorescence microscopy; type: cell-based, E. coli; details: overnight culture
From the text: Metabolic labeling of VTEC was also investigated to determine if this labeling strategy could be applied to the detection of live pathogenic bacteria. […] Therefore, targeting LPS of bacteria with a KDO analogue can also be used to identify contamination by living pathogenic strains of E. coli.

SMILES	contact time after which metabolic label incorporation is detected [1]	fluorescence labeling after reaction with Alexa488-azide [1]	fluorescence labeling after reaction with Alexa488-azide [2]	capture on streptavidin coated beads via incorporated HPG (L. innocua)	capture on streptavidin coated beads via incorporated HPG (BL21 E. coli [3])	identification of captured bacteria as living by fluorescence (K12 E. coli)	dual metabolic label incorporation (BL21 E. coli [4])	incorporation into LPS molecules [5]
C#CCCC(N)C(=O)O (stereo not drawn) [HPG, homopropargylglycine]	30 min	fluorescently labeled	labeled efficiently	multiple E. coli and L. innocua cells bound to the streptavidin coated beads	multiple E. coli and L. innocua cells bound to the streptavidin coated beads	identified as being alive	capable of incorporating both	–
C#CCCC(=O)NC[C@@H](O)C1OC(O)(C(=O)O)C[C@@H](O)[C@H]1O (stereo partly drawn) [KDO-alkyne]	–	–	–	–	–	–	–	capable of incorporating KDO-alkyne into LPS molecules
[N-]=[N+]=NC[C@@H](O)C1OC(O)(C(=O)O)C[C@@H](O)[C@H]1O (stereo partly drawn) [KDO-azide]	–	–	–	–	–	–	capable of incorporating both	–
